Usually Kd stands for the constant that tells how readily two partners part at equilibrium. A high value points to lower affinity.

Where a SMILES comes first, the peptide text is derived from it. [ ]: non-standard residue; d: D form. pT = C[C@@H](OP(=O)(O)O)[C@H](N)C(=O)O; pS = N[C@@H](COP(=O)(O)O)C(=O)O

One assay has as its target T1, Skp1-FBXW7 complex (Homo sapiens, UniProt P63208+Q969H0).
T1 construct: human FBXW7 (263-707) with an N-terminal hexa-histidine (His6) tag; His6 (N, cleaved yes); made in house; host or cells: E. coli Rosetta (DE3)
Description: Fluorescence polarization competitive protein-peptide binding assay. To be noted: for binding affinity to purified FBXW7 in vitro: FP based quantitative in vitro binding assay, result in words; for Kd: FP competition of unlabeled peptide against 50 nM CF-labeled CCNE peptide at ~60-80% complex formation, 20 mM Tris pH 8.0, 100 mM NaCl, 0.05% Brij35P, 2 mM TCEP, value with error. As for the experimental part: Truncated Skp1 (1-149) and human FBXW7 (263-707) with an N-terminal hexa-histidine (His6) tag were cloned into a bicistronic plasmid (pMG950) and were co-expressed in E. coli Rosetta (DE3) strain. The Skp1-FBXW7 complex was purified using affinity, anion exchange, and gel filtration chromatography. The DNA expression plasmid was transformed into E. coli Rosetta (DE3) strain and grown in LB until OD600 = 0.5, protein expression was induced with 100 µM isopropyl-β-d-1-thigalatopyaranoside (IPTG) overnight at 18 °C. The cell pellet was lysed, and the recombinant protein was purified using Ni-NTA agarose beads. Before further purification the His6-tag was removed by using the TEV protease and then the protein complex was further purified using anion exchange chromatography twice, first with a Resource Q and then with a Mono Q column (pH = 8). Finally, the complex was subjected to size-exclusion chromatography in 20 mM Tris, pH = 8, 150 mM NaCl, and 1 mM DTT using a Superdex200 10/300 column (GE Healthcare, Chicago, IL, USA). The eluted fractions were pooled together and were supplemented with 10% glycerol and 2 mM TCEP before concentration and storage.
Fluoresce polarization (FP) based protein–peptide binding affinity measurements were carried out using 50 nM carboxyfluorescein (CF) labeled CCNE peptide (CF-PSGLLpTPPQpSGKKQ) and data were fit to a direct or a competitive binding equation using OriginPro 2018 as described earlier. For the direct measurements the concentration of Skp1-FBXW7 complex was increased in a titration experiment and then the binding affinity (Ki) of the unlabeled peptide was determined by titrating the Skp1-FBXW7: labelled peptide complex sample, at a concentration corresponding to ~60–80% complex formation, with increasing amounts of unlabeled peptide. All the FP measurements were performed in 20 mM Tris (pH 8.0), 100 mM NaCl, 0.05% Brij35P, and 2 mM TCEP using a Cytation^TM 3 (BioTek Instruments) plate reader (384-well plates in 20 µL binding reaction volume). Peptides were chemically synthesized and were ordered from GenScript.
A general note: Polarisation of emitted light reports the rotation of a fluorescent probe.

The subject of the next assay is FBXW7. Put plainly: Ratiometric EGFP/DsRed protein degradation assay with degron probes. In kind it is cell-based, human. To be noted: putative degron motif in EGFP-fused probe with AAKG2 MAPK docking motif; HEK293T, 48 h after transfection, EGFP/DsRed ratio with and without FBXW7 plasmid; search cycles 1-4. An excerpt: In order to be able to test putative phosphodegron motifs, a ratiometric protein level monitoring method was adapted to monitor MAPK controlled FBXW7 mediated protein degradation. Briefly, intact DsRed and an EGFP-chimera were expressed in HEK293T cells in equal amounts from an expression plasmid, giving an EGFP/DsRed fluorescence ratio close to one under non-degrading conditions. EGFP was fused to a probe comprised of a putative degron sequence and a known MAPK binding docking motif. EGFP signal is expected to diminish faster than DsRed in cells with more FBXW7 if the probe responded to degradation.
We started out from an intentionally general consensus motif of FBXW7 degrons, inspired by the liberal [TS]P..[TS]P pattern defined for yeast Cdc4 substrates, and scanned the human disordered part of the proteome using SliMSearch4 (the disorder score cut-off was 0.4 and flank length was 5). In all, 22 motifs from this list were subjectively chosen and tested in the ratiometric degradation assay giving only 5 positives (see Supplementary Table S1). Based on the results of this first round, by taking information both from the identified positives and negatives, the consensus motif definition was narrowed to requiring a proline at P + 2, but motifs were allowed to have a phospho-mimicking residue (D or E) at P + 4 because it had been formerly reported that this second phosphorylatable residue may be replaced by aspartate or glutamate. […] In the third round, hydrophobic amino acids were more strictly required at positions −1/−2 and P − 1/2/3 positions were further narrowed and P + 4 position was relaxed based on the identified negatives, which gave a higher hit rate (4 out of 6). This third round gave functional motifs at a good rate, but the used motif definition was very restrictive compared to other known motifs. Finally, in the fourth round, we gave up using an optimal consensus and established the positional relaxation model. […] Hits on this final, most predictive list are presented in Supplementary Table S2. All entries were filtered for motif locations by UniProt annotations, discarding all enzyme-inaccessible (e.g., extracellular) instances. Motifs that had any overlapping PFAM domain indicated were manually assessed using the AlphaFold EBI website. Out of these, only motifs that were highly accessible and located outside of confidently predicted folded domains were kept. We also added kinase consensus compatibility to every motif and the number of experiments where phosphorylation could be detected from PhosphoSitePlus.
The chimera degron module was ordered from IDT as gene Block (gBlock). It consisted of a coiled coil dimerization motif (GCN4: EELLSKNYHLENEVARLKK) to increase sensitivity by allowing multivalent binding, a MAPK binding docking motif (AAKG2: KKNASQKRRSLRVHIPDL), and the CycECO degron motif. The motifs were separated by Gly-Ser-Asn linkers and the gBlock was designed so that the motifs could be easily changed by using unique sets of restriction endonucleases. The gBlock was sub-cloned into the Gateway pENTR4 entry plasmid (Thermo Fisher, Waltham, MA, USA) using restriction enzymes (SalI and NotI). The pENTR4-chimera and the destination plasmid (MSCV-CMV-DsRed-IRES-EGFP-DEST from Addgene; 41941), [28]) were subjected to gateway cloning using LR clonase II enzyme (Invitrogen) to obtain the first DsRed-EGFP-chimera DNA construct containing the cycECO degron. Oligonucleotides corresponding to different degron sequences and docking motifs were ligated into the DsRed-EGFP-chimera DNA construct. The list of all the oligonucleotides used for cloning is provided in Supplementary Table S3. pcDNA3-FLAG-FBXW7α was a kind gift from Michael Pagano (New York University). The FBXW7 arginine mutant (Arg mutant: R465C; R479Q; R505L) was created using two-step PCR and cloned into the pcDNA3-FLAG plasmid. […]

T1 sequence (Q969H0 263-707): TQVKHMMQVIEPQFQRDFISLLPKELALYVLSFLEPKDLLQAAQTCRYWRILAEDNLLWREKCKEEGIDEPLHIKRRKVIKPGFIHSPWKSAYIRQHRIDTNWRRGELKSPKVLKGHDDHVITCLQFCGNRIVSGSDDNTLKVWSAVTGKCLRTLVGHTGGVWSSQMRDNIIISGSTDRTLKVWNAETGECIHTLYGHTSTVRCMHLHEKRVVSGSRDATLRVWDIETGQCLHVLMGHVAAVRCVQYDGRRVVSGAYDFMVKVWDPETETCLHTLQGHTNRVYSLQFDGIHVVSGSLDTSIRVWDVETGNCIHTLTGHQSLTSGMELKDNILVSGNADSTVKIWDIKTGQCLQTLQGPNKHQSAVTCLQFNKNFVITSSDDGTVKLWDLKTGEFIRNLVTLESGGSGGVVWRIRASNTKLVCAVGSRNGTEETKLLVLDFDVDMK
T1 sequence (P63208 1-149 partner limits assumed): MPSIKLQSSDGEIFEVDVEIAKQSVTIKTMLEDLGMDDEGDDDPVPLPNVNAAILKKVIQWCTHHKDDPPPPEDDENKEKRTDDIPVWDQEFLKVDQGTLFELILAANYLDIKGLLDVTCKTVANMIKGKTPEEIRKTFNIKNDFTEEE

For `CSCC[C@H](NC(=O)[C@@H]1CCCN1C(=O)[C@@H](NC(=O)[C@H](CCC(=O)O)NC(=O)[C@@H]1CCCN1C(=O)[C@@H]1CCCN1C(=O)[C@@H](NC(=O)[C@H](Cc1ccc(O)cc1)NC(=O)[C@H](CC(C)C)NC(=O)[C@H](CC(N)=O)NC(=O)[C@H](CC(C)C)NC(=O)[C@H](CCCCN)NC(=O)[C@@H](N)Cc1ccccc1)[C@@H](C)OP(=O)(O)O)[C@@H](C)OP(=O)(O)O)C(=O)N[C@@H](CCC(=O)O)C(=O)N1CCC[C@H]1C(=O)O` [KAT6B] (H-FKLNLY[pT]PPE[pT]PMEP-OH), at Skp1-FBXW7 complex, the “binding affinity to purified FBXW7 in vitro” value (shortened to “binding affinity”) is on record as “low nanomolar” and binding was characterised by a dissociation constant (Kd) of 2.8 ± 0.2 nM.
For `CC(C)C[C@H](NC(=O)[C@@H](NC(=O)[C@H](CO)NC(=O)[C@H](CC(N)=O)NC(=O)[C@@H](N)CO)C(C)C)C(=O)N[C@@H](CC(N)=O)C(=O)N[C@H](C(=O)N1CCC[C@H]1C(=O)N1CCC[C@H]1C(=O)N[C@H](C(=O)N[C@H](C(=O)N1CCC[C@H]1C(=O)N[C@@H](CCC(=O)O)C(=O)N[C@@H](CO)C(=O)N1CCC[C@H]1C(=O)O)[C@@H](C)OP(=O)(O)O)[C@@H](C)O)[C@@H](C)OP(=O)(O)O` [ARID4B] (H-SNSVLN[pT]PPT[pT]PESP-OH) the same measures were “low nanomolar” and 17.7 ± 0.6 nM.
With `CC(C)C[C@H](NC(=O)[C@@H]1CCCN1C(=O)[C@H](CCCCN)NC(=O)[C@H](Cc1ccccc1)NC(=O)CNC(=O)[C@@H](N)CO)C(=O)N[C@H](C(=O)N1CCC[C@H]1C(=O)N1CCC[C@H]1C(=O)N[C@H](C(=O)N[C@H](C(=O)N1CCC[C@H]1C(=O)N[C@@H](CC(C)C)C(=O)N[C@@H](CO)C(=O)N1CCC[C@H]1C(=O)O)[C@@H](C)OP(=O)(O)O)[C@@H](C)O)[C@@H](C)OP(=O)(O)O` [ETV5] (H-SGFKPL[pT]PPT[pT]PLSP-OH), at Skp1-FBXW7 complex, the “binding affinity” value is “low nanomolar” and the Kd is 16.1 ± 2.1 nM.
For `CC[C@H](C)[C@H](NC(=O)[C@@H]1CCCN1C(=O)[C@@H]1CCCN1C(=O)[C@@H](NC(=O)[C@@H](NC(=O)[C@@H]1CCCN1C(=O)[C@@H]1CCCN1C(=O)[C@@H](NC(=O)[C@H](CC(C)C)NC(=O)[C@H](CO)NC(=O)CNC(=O)[C@H](CO)NC(=O)[C@H](CO)NC(=O)[C@@H](N)Cc1c[nH]cn1)[C@@H](C)OP(=O)(O)O)C(C)C)[C@@H](C)OP(=O)(O)O)C(=O)N[C@H](C(=O)O)[C@@H](C)O` [JAZF1] (H-HSSGSL[pT]PPV[pT]PPIT-OH) the same measures were “low nanomolar” and 29.7 ± 3.2 nM.
For `CSCC[C@H](NC(=O)[C@@H]1CCCN1C(=O)[C@@H]1CCCN1C(=O)[C@@H](NC(=O)[C@@H]1CCCN1C(=O)[C@H](CC(N)=O)NC(=O)CNC(=O)[C@@H]1CCCN1C(=O)[C@@H](NC(=O)[C@@H]1CCCN1)C(C)C)[C@@H](C)OP(=O)(O)O)C(=O)N[C@H](C(=O)N1CCC[C@H]1C(=O)NCC(=O)N[C@@H](CO)C(=O)N[C@@H](CO)C(=O)O)[C@@H](C)OP(=O)(O)O` [ZMIZ1] (H-PVPGNP[pT]PPM[pT]PGSS-OH), in that order: “low nanomolar” and 52.3 ± 2.6 nM.
On to “LGPPPGLLTPPVATELSQN [CCAR2, synthetic peptide of the CCAR2 motif, P + 4 nonphospho class]”, for which, in the assay on FBXW7, the Outcome result is reported as “Positive (tested positive, where +FBXW7/control protein level ratio was lower than 1)”. Also, the “binding affinity” value on Skp1-FBXW7 complex was “low micromolar”.
On to “TTVTPPGTPPMR [KSR2-b, putative FBXW7 degron motif tested as EGFP-fused degradation probe]”, for which the Outcome entry with FBXW7 is on record as “Negative”.
For “PSTTVGSHSPPETPVLTR [ZMYND1 or 8, putative FBXW7 degron motif tested as EGFP-fused degradation probe]”, the Outcome entry in the assay on FBXW7 is listed as “Negative”.
Turning to `CSCC[C@H](NC(=O)CNC(=O)[C@H](Cc1c[nH]cn1)NC(=O)[C@@H](N)[C@@H](C)O)C(=O)N[C@@H](CCSC)C(=O)N[C@@H](CC(C)C)C(=O)N[C@H](C(=O)N1CCC[C@H]1C(=O)N1CCC[C@H]1C(=O)N[C@@H](CO)C(=O)N[C@@H](COP(=O)(O)O)C(=O)N1CCC[C@H]1C(=O)N[C@@H](CC(C)C)C(=O)N[C@@H](CCC(=O)O)C(=O)N[C@@H](CC(C)C)C(=O)O)[C@@H](C)OP(=O)(O)O` [KLF4] (H-THGMML[pT]PPS[pS]PLEL-OH), on Skp1-FBXW7 complex, the “binding affinity” value is reported as “low nanomolar” and binding was characterised by a dissociation constant (Kd) of 11 ± 1 nM.
Turning to “SAVQTPPSPPVSPRVLS [PCARE, putative FBXW7 degron motif tested as EGFP-fused degradation probe]”, in the assay on FBXW7, the Outcome result was “Negative”.
On the same count and under the same terms, with “PPEESPLSPPPEASRLS [KMT2D-b, putative FBXW7 degron motif tested as EGFP-fused degradation probe]” the entry was “Negative”; with “NYGARPPPTPPASPPPSV [KMT2E, putative FBXW7 degron motif tested as EGFP-fused degradation probe]”, “Positive (tested positive, where +FBXW7/control protein level ratio was lower than 1)”.
Take “AVVRTPPKSPSSAK [Tau, putative FBXW7 degron motif tested as EGFP-fused degradation probe]”: the Outcome result in the assay with FBXW7 is listed as “Negative”.
“TEPRSSPSPPPSPTEPE [CUX2, putative FBXW7 degron motif tested as EGFP-fused degradation probe]”: the Outcome entry in the assay on FBXW7 was “Negative”.
Same read-out and setting: with “KTGEQTPPHEHICLRDELP [JIP1, putative FBXW7 degron motif tested as EGFP-fused degradation probe]” the entry was “Negative”; with “AHELPLTPPADPSYPY [SP5, putative FBXW7 degron motif tested as EGFP-fused degradation probe]”, “Positive (tested positive, where +FBXW7/control protein level ratio was lower than 1)”.

Source of the values: paper PMC8955265, “Systematic Discovery of FBXW7-Binding Phosphodegrons Highlights Mitogen-Activated Protein Kinases as Important Regulators of Intracellular Protein Levels” (International Journal of Molecular Sciences, 2022).
